Read-outs that look alike come from different tables or passages of the source. One block for each compound: values may come before it.
Columns and labels:
[1] = target: T1, Toll-like receptor 7 (HEK-blue hTLR7 cell) (Homo sapiens, UniProt Q9NYK1); assay: Toll-like receptor 7 in vitro receptor binding activity (HEK-blue hTLR7 cell, Quanti-Blue alkaline phosphatase reporter); type: cell-based; conditions: 24 h incubation, read-out: TLR7 EC50
T1 construct: host or cells: HEK-blue hTLR7 cell (HEK293-derived reporter line)
T1 sequence (Q9NYK1 27-1049): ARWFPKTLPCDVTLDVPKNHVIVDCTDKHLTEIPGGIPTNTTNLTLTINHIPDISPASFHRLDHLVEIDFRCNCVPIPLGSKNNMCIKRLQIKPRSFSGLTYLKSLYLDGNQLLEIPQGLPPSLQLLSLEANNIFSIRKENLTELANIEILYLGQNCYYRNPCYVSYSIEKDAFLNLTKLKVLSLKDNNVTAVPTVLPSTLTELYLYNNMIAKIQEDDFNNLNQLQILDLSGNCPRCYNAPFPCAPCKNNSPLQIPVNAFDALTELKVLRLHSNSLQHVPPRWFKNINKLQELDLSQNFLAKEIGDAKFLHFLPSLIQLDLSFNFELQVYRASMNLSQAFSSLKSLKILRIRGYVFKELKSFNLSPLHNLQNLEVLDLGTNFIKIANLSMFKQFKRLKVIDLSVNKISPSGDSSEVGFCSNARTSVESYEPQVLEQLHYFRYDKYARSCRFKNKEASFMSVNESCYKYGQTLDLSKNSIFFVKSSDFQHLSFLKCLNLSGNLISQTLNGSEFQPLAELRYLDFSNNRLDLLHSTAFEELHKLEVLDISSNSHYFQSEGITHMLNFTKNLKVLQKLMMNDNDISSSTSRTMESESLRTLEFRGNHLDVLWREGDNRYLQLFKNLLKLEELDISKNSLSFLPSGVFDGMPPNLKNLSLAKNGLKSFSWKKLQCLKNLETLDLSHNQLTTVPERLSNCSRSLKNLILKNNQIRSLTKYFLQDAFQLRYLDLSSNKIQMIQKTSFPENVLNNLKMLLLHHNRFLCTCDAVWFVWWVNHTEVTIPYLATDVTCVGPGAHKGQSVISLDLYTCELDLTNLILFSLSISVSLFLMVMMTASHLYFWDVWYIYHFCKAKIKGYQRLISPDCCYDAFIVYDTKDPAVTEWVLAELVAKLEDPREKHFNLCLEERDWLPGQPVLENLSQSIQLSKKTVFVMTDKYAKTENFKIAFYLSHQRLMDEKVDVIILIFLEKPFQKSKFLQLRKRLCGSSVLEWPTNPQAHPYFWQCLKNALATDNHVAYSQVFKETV
Procedure: (§1) Experimental Example 1: Toll-Like Receptor 7 and Toll-Like Receptor 8 In Vitro Receptor Binding Activity
(§2) HEK-blue hTLR7 cell and HEK-blue hTLR8 cell (available from InvivoGen)
(§3) The GS-9620 and R848 used have the following structures. GS-9620 can be prepared according the process disclosed in US20100143301; R848 is purchased from ABGENT (Catalog: IMG-2208, 0.5 mg).
(§4) The compounds were gradient diluted with DMSO in 3-fold using liquid work station POD starting at a concentration of 10 mmol/L and 10 points were diluted (2nd column to 11th column, and each point was duplicated). At 12th column, 1 μL of 5 mg/mL positive compound R848 was added as positive control; and at 1 st column, 1 μL of DMSO was added as negative control. Each well contained 1 μL of DMSO.
(§5) 2. The cells in cell culture flask were collected and the cell density was diluted to 250,000 cells/mL.
(§6) 3. 200 μL (50,000 cells/well) of cell suspension was added into prepared compound plate and the final concentration of DMSO in each well was 0.5%.
(§7) 4. The culture plates containing cells and the compounds were incubated in CO2 incubator for 24 h at 37° C., 5% CO2.
(§8) 5. After 24 h incubation, 20 μL of supernatant was removed from each well of the cell culture plates to a 96-well transparent assay plate. […]
(§9) 6. After 1 h, the content of alkaline phosphatase in 20 μL of supernatant was determined using Microplate Reader at OD650. […]

[2] = Pharmacokinetics assay in rat; type: in vivo, SD rats; set-up: Mean plasma drug concentration: unit not given here; conditions: for Cmax: read-out: C0 or Cmax; for half-life: read-out: T½ (converted)
Procedure: Experimental Example 2: Pharmacokinetics Assay in Rat
12 male SD rats were divided into 4 groups with 3 SD rats in each group. 2 groups of animals were administered by intravenous injection (IV) 1 mg/kg of the control Toll-like receptor 7 agonist GS-9620 and Example 1 compound as 10% hydroxypropyl-β-cyclodextrin aqueous solution (concentration is 0.5 mg/mL), respectively. The other 2 groups were administered orally (PO) 5 mg/kg of GS-9620 and 3 mg/kg of Example 1 compound as 0.5% methylcellulose/0.2% Tween 80 pure water suspension (concentration is 1 mg/mL). […] Each rat with oral administration was collected for whole blood samples which were prepared into plasma 15, 30 min and 1, 2, 4, 8, 24 h continuously after administration. The plasma concentrations of GS-9620 and Example 1 compound were determined with LC-MS/MS.

[3] = target: T2, Toll-like receptor 8 (HEK-blue hTLR8 cell) (Homo sapiens, UniProt Q9NR97); assay: Toll-like receptor 8 in vitro receptor binding activity (HEK-blue hTLR8 cell, Quanti-Blue alkaline phosphatase reporter); type: cell-based; conditions: 24 h incubation, read-out: TLR8 EC50
T2 construct: host or cells: HEK-blue hTLR8 cell (HEK293-derived reporter line)
T2 sequence (Q9NR97 27-1041): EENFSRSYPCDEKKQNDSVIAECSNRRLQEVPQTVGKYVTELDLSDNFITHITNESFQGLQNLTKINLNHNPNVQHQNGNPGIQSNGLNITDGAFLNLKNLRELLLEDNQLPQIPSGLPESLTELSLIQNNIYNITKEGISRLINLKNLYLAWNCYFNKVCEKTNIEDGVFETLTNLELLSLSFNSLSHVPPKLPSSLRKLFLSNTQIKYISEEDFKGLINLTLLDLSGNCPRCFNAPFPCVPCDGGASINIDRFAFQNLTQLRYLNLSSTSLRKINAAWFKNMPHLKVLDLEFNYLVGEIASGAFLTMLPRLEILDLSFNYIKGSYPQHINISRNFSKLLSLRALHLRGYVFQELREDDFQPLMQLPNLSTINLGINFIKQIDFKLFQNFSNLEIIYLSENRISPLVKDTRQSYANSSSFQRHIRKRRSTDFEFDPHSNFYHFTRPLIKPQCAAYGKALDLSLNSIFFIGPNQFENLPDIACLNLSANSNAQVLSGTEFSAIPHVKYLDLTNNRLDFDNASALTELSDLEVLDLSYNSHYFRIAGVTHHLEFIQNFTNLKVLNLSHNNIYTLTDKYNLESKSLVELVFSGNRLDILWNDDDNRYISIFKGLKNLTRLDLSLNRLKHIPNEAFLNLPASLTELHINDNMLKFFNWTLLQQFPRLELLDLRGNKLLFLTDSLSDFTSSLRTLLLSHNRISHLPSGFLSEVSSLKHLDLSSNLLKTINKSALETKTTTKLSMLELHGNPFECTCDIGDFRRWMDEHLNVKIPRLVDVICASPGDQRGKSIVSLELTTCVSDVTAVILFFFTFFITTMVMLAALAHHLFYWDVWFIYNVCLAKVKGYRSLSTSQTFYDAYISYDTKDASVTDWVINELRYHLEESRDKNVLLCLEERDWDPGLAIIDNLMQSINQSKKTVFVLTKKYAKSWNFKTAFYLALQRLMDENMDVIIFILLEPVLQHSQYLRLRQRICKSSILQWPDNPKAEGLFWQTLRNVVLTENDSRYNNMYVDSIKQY
Procedure: as §1, §2, §3, §4, §5, §6, §7, §8, §9

[4] = male, SD, plasma, 1 mg/kg, IV 1 mpk
[5] = male, SD, plasma, 3 mg/kg, PO 3 mpk

Structure (SMILES): CCCCOc1nc(N)c2[nH]cc(Cc3cnc(CN4CCCC4)s3)c2n1 [Example 1, 2-butoxy-7-((2-(pyrrolidin-1-ylmethyl)thiazol-5-yl)methyl)-5H-pyrrolo[3,2-d]pyrimidin-4-amine]
- EC50 [1]: 0.454 µM
- Mean plasma drug concentration ([2]; IV 1 mpk, time 0.083 h): 500
- Mean plasma drug concentration ([2]; IV 1 mpk, time 0.25 h): 277
- Mean plasma drug concentration ([2]; IV 1 mpk, time 0.5 h): 197
- Mean plasma drug concentration ([2]; IV 1 mpk, time 1 h): 120
- Mean plasma drug concentration ([2]; IV 1 mpk, time 2 h): 66.1
- Mean plasma drug concentration ([2]; IV 1 mpk, time 4 h): 30.6
- Mean plasma drug concentration ([2]; IV 1 mpk, time 8 h): 13.1
- Mean plasma drug concentration ([2]; PO 3 mpk, time 0.25 h): 45.4
- Mean plasma drug concentration ([2]; PO 3 mpk, time 0.5 h): 52.0
- Mean plasma drug concentration ([2]; PO 3 mpk, time 1 h): 86.8
- Mean plasma drug concentration ([2]; PO 3 mpk, time 2 h): 113
- Mean plasma drug concentration ([2]; PO 3 mpk, time 4 h): 23.6
- Mean plasma drug concentration ([2]; PO 3 mpk, time 8 h): 5.64
- AUC(0-inf) [2, 4]: 0.573 µM·h
- AUC(0-t) [2, 4]: 0.541 µM·h
- clearance [2, 4]: 75.8 mL/min/kg
- Cmax [2, 4]: 673 nM
- half-life [2, 4]: 3.08 h
- Vd ([2]; male, SD, plasma, 1 mg/kg, IV 1 mpk, read-out: Vdss): 13.5 L/kg
- AUC(0-inf) [2, 5]: 0.325 µM·h
- AUC(0-t) [2, 5]: 0.313 µM·h
- Cmax [2, 5]: 148 nM
- half-life [2, 5]: 1.54 h
- EC50 [3]: 29.3 µM

- Mean plasma drug concentration ([2]; IV 1 mpk, time 0.083 h): 170
- Mean plasma drug concentration ([2]; IV 1 mpk, time 0.25 h): 102
- Mean plasma drug concentration ([2]; IV 1 mpk, time 0.5 h): 65.4
- Mean plasma drug concentration ([2]; IV 1 mpk, time 1 h): 48.1
- Mean plasma drug concentration ([2]; IV 1 mpk, time 2 h): 21.6
- Mean plasma drug concentration ([2]; IV 1 mpk, time 4 h): 13
- Mean plasma drug concentration ([2]; IV 1 mpk, time 8 h): 4.17
- Mean plasma drug concentration ([2]; PO 5 mpk, time 0.25 h): 56.3
- Mean plasma drug concentration ([2]; PO 5 mpk, time 0.5 h): 33.2
- Mean plasma drug concentration ([2]; PO 5 mpk, time 1 h): 83.4
- Mean plasma drug concentration ([2]; PO 5 mpk, time 2 h): 136
- Mean plasma drug concentration ([2]; PO 5 mpk, time 4 h): 16.7
- Mean plasma drug concentration ([2]; PO 5 mpk, time 8 h): 9.49
Structure (SMILES): CCCCOc1nc(N)c2c(n1)N(Cc1cccc(CN3CCCC3)c1)CC(=O)N2 [GS-9620, reference compound]
